According to PMC10827914 (Cellular and Molecular Life Sciences: CMLS, 2024):
“And” between values parts separate entries of the source, which are not always exact repeats. Equal entries are not always repeated. “Also recorded” adds a separate entry of the source. Where a SMILES comes first, the peptide text is derived from it. Bridges are numbered along the chain shown (N, C = ends). Where no end group is shown, it is not given here.

Legend:
[1] = molecular target: T1, recombinant human CD13 (rCD13) (Homo sapiens, UniProt P15144); assay: rCD13 enzyme inhibition assay, L-alanine 7-amido-4-methylcoumarin substrate; assay type: biochemical
T1 construct: consisting of the CD13 extracellular domain expressed in HEK-293 cells; His-tag; purchased Sino Biological 10051-H08H; host or cells: HEK-293 cells
Protocol: Recombinant CD13 (rCD13) enzyme activity and inhibition assays were performed as described previously using L-alanine-p-nitroanilide or L-alanine 7-amido-4-methylcoumarin as substrates in 60 mM Tris–HCl, pH 7.4, or 60 mM potassium phosphate buffer, pH 7.4. Mixtures containing peptides at various concentrations, rCD13 (0.2 µg/mL), and L-alanine-p-nitroanilide substrate (0.5 mM) in 60 mM potassium phosphate buffer, pH 7.4 (total volume, 0.1 ml) were prepared and left to react for 30 min at 37 °C. The products were then analyzed using a plate reader (iMark Microplate Absorbance Reader; Bio-Rad). Alternatively, the assay was performed using 0.1 mM L-alanine 7-amido-4-methylcoumarin in 60 mM Tris–HCl, pH 7.4, as a substrate. Fluorescence intensity of methylcoumarin was measured on an Infinite 200 PRO plate reader (Tecan) using the following settings: excitation wavelength: 341 nm; emission wavelength: 441 nm; excitation bandwidth: 9; emission bandwidth: 20 nm; gain: 109 manual; number of flashes: 25; integration time: 20 µs; lag time: 0 µs; settle time: 0 ms.
The IC50 of each inhibitor was calculated by non-linear regression analysis of inhibition data using GraphPad Prism Software (GraphPad Software, Version 9.00, San Diego, CA). Steady-state enzyme kinetic analyses were performed using various concentrations of L-alanine-p-nitroanilide (0–1.5 mM) and VGCARRYCS peptide (0–900 nM). The initial velocities (Vo) were calculated from the slopes of the first 5 min of reaction. The enzyme inhibitory constant (Ki) was calculated using the competitive enzyme inhibition model in GraphPad Prism Software.
Fig. 2 G4 recognizes soluble forms of CD13, with higher affinity and selectivity than bestatin, and the membrane forms expressed on the surface of HUVEC cells. A Inhibitory effects of G4 and bestatin on the enzymatic activities of different aminopeptidases (rCD13, APA, and APB). Various amounts of G4 or bestatin were incubated with rCD13 (0.2 µg/mL in 60 mM Tris–HCl pH 7.4), APA (0.2 µg/mL in 60 mM Tris–HCl pH 7.4, 50 mM calcium chloride, 200 mM sodium chloride) or APB (0.2 µg/mL in 60 mM Tris–HCl pH 7.4, 100 mM potassium chloride) and the corresponding substrates at 0.1 mM (L-alanine-7-amido-4-methylcoumarin for rCD13, L-glutamic acid γ-(7-amido-4-methylcoumarin) for APA, and L-arginine-7-amido-4-methylcoumarin for APB). The mixtures were incubated for 30 min at 37 °C, and the cleavage of each substrate was monitored by measuring the fluorescence of methylcoumarin (λex 341 nm; λem 441 nm) using an Infinite 200 PRO plate reader (Tecan). Three independent experiments were performed for each enzyme. The results of one representative experiment for each enzyme are shown (mean ± SEM, duplicates). B Inhibitory effects of G4 and bestatin on soluble CD13 immunocaptured from human serum (sCD13) using microtiter plates coated with anti-CD13 mAb WM15. The microtiter plate was filled with a solution of mAb WM15 (5 μg/ml in DPBS) and incubated overnight at 4 °C. The plate was then washed with DPBS, blocked with 3% bovine serum albumin (BSA) in DPBS, and filled with human serum containing soluble CD13 (diluted 1:2 with DPBS containing 2% BSA). After washing with DPBS, mixtures of G4 or bestatin (0–100 µM in 60 mM Tris–HCl, pH 7.4) and L-alanine p-nitroanilide hydrochloride substrate (4.5 mM in 60 mM Tris–HCl, pH 7.4) were added and left to incubate at 37 °C for 2 h. Substrate cleavage by sCD13 dissociated from mAb WM15 was then monitored by measuring the absorbance at 405 nm in each well using a plate reader (Bio-Rad). The results of one experiment performed in triplicate are shown (mean ± SEM). C Effect of G4 on the binding of the anti-CD13 mAb WM15 to HUVEC. HUVEC were seeded at a density of 2 × 10^5 cells in 100 µL DPBS supplemented with 5% normal human serum (NHS) and incubated with a mixture of G4 peptide (0, 0.1, 1, and 10 µM) and mAb WM15 (0 or 0.13 nM) as indicated. […]

[2] = tested on: rCD13; assay: Proteolytic effect of rCD13 on peptide G4 (mass spectrometry); assay type: in vitro ADME, human; settings: G4 Lot #B 10 mM in 60 mM Tris-HCl pH 7.4; rCD13 0, 0.2, 2 µg/mL; 0, 0.5, 16 h; 37 °C; high resolution mass spectrometry
Protocol: Peptide G4 (Lot #B, synthetized and analyzed in-house) (10 mM, in 60 mM Tris-HCl, pH 7.4) was incubated with various amounts of rCD13 (0, 0.2 and 2 µg/mL) for 0, 0.5 and 16 h, as indicated, at 37°C. The enzyme activity was stopped by adding 10% acetic acid. Each sample was then desalted using Zip-tip C18 columns (Merck Millipore), dried in a SAVANT centrifuge, resuspended in 8 µl of 10% formic acid, and analyzed by high resolution mass spectrometry, using a Q-Exactive mass spectrometer (Thermo Scientific, Bremen, Germany) equipped with a nano-electrospray ion source (Proxeon Biosystems). Full scan spectra were acquired with the resolution set to 70000 and mass range from 300 to 1500 m/z. The mass spectra were deconvoluted using the Xtract option within the QualBrowser application of the Thermo Xcalibur software v.4.2.47.

[3] = tested on: WEHI-164 fibrosarcoma; assay: Antitumor activity in WEHI-164 fibrosarcoma-bearing mice; assay type: in vivo
Protocol: Female BALB/c mice (Charles River Laboratories, Calco, Italy), weighing 16–18 g, were subcutaneously injected into the left flank of 10^6 WEHI-164 cells (ATCC, cat. CRL-1751, Lot. 63,682,839). Dose-finding experiments were performed with groups of six mice treated with G4-TNF (4, 20, or 100 pg/dose in 100 μL of 0.9% sodium chloride containing 100 µg/ml HSA, intraperitoneally injected on day 5) or vehicle. Tumor growth was monitored daily by measuring tumor volume with calipers, as previously described. The animals were sacrificed before the tumor diameter reached 1.0–1.5 cm. To test whether the antitumor activity of G4-TNF was mediated by CD13, tumor-bearing mice (6 animals/group) were treated with a single injection of G4-TNF (100 pg/dose, i.p.) in combination with peptide CNGRC (100 µg/dose) or anti-CD13 mAb R3-63 (25 µg/dose, given 1.5 h i.p. before administration of G4-TNF) 5 days after tumor implantation.
Fig. 3 Effect of G4-TNF on tumor growth and body weight of mice bearing WEHI-164 fibrosarcomas. A Mice bearing subcutaneous WEHI-164 tumors (5–6 mice/groups) were treated 5 days after tumor implantation with a single intraperitoneal injection of G4-TNF (0, 4, 20, or 100 pg). Tumor volume and body weight after treatment were monitored daily. B Effect of mAb R3-63 (anti-murine CD13 antibody, 25 µg) and CNGRC peptide (100 µg) on the antitumor activity of G4-TNF (100 pg) (5–6 mice/group). The arrows indicate the time of treatment. *P < 0.05; **P < 0.01, by Mann–Whitney analysis of the area under the curve for each tumor, with the GraphPad Prism software (mean ± SEM)
A) Mice bearing subcutaneous WEHI-164 tumors (6 mice/groups), were treated 5-6 days after tumor implantation with a single intraperitoneal injection of murine NGR-TNF (0, 25, 50, or 100 pg). Tumor volume and body weight after treatment were monitored daily.
B) Effect of murine TNF (50 pg) on tumor growth and body weight. The arrows indicate the time of treatment (mean ± SEM).

[4] = tested on: rCD13 (His-tagged recombinant human CD13); assay: rCD13 (2 µg/mL) in 60 mM Tris-HCl, pH 7.4; settings: 37°C, up to 16 h
[5] = molecular target: His-tagged recombinant human CD13 (rCD13) (human) (UniProt P15144)
[6] = molecular target: T2, His-tagged recombinant human CD13 (rCD13) (human, UniProt P15144 33-967); assay: steady-state enzyme inhibition kinetics; rCD13 with L-alanine-p-nitroanilide (0-1.5 mM) and … (0-900 nM), 60 mM potassium phosphate buffer, pH 7.4, 37 °C; initial velocities of the first 5 min; competitive enzyme inhibition model (GraphPad Prism); settings: both partners purified
T2 construct: aminopeptidase N / CD13, human, extracellular domain (soluble ectodomain); also called recombinant soluble CD13; recombinant CD13 ectodomain; source: bought: Sino Biological (cat. 10051-H08H), expressed in HEK-293 cells
T2 sequence (P15144 33-967): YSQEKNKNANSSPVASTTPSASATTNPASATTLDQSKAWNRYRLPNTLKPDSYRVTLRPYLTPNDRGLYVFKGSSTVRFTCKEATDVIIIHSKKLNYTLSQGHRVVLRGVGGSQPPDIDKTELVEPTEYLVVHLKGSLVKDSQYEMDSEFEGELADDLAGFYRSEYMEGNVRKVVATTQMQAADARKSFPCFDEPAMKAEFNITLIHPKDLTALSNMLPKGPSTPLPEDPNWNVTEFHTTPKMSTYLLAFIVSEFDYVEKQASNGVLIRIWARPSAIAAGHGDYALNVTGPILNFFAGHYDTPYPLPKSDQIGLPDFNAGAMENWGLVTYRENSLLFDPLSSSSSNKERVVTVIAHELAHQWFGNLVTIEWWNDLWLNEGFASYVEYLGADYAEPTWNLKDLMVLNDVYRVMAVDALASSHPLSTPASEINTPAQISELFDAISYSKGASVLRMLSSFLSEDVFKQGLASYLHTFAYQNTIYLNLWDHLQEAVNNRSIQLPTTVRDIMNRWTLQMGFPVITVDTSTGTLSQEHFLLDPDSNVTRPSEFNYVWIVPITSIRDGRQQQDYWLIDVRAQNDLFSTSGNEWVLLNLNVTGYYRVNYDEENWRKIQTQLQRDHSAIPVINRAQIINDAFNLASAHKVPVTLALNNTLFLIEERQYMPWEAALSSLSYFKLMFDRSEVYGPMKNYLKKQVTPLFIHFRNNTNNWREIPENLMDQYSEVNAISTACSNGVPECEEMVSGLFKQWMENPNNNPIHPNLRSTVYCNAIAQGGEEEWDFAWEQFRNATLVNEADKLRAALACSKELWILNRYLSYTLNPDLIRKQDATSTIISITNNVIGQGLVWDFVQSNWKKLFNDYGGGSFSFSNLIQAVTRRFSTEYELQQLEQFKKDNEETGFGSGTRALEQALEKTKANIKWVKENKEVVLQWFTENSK

T1 sequence (P15144 33-967 limits assumed): as the sequence (P15144 33-967) above
Sequence of His-tagged recombinant human CD13 (rCD13) (human) (P15144 33-967): as above

CC(C)[C@H](N)C(=O)NCC(=O)N[C@H]1CSSC[C@@H](C(=O)N[C@@H](CO)C(=O)O)NC(=O)[C@H](Cc2ccc(O)cc2)NC(=O)[C@H](CCCNC(=N)N)NC(=O)[C@H](CCCNC(=N)N)NC(=O)[C@H](C)NC1=O [G4] (H-VGCARRYCS-OH; disulfide 3-8)
IC50 ([1]; 0.1 mM L-alanine 7-amido-4-methylcoumarin, 60 mM Tris-HCl pH 7.4, fluorescence, mean ± SEM of n independent experiments, read-out: IC50: peptide concentration that inhibits 50% of rCD13 enzymatic activity): 130 ± 20 nM | IC50 of G4 for rCD13 lower than that of bestatin ([1]; Fig. 2A): 4–5 fold | Cleavage of the peptide by rCD13 (stability) [2]: cleavage of Val-1 and Gly-2 was observed only after a long incubation time (16 h) with a large amount of enzyme (2 µg/ml)

CNGRC [reference compound]
Effect on the antitumor activity of G4-TNF ([3]; G4-TNF 100 pg i.p. with mAb R3-63 25 µg (1.5 h before) or CNGRC 100 µg): markedly reduced (almost completely)

VGCARRYCS
cleaved bond [4]: Val1-Gly2, 16 h; also recorded: Gly2-Cys3, 16 h

B1: peptide … (disulfide-bridged) (peptide)
peptide: VGCGRRYCSN
modifications: disulfide 3-8 (inferred)
IC50 of inhibition of rCD13 enzymatic activity (L-alanine-p-nitroanilide substrate) [5]: 2.01 µM

B2: peptide VGCARRYCS (disulfide-bridged, called G4) (peptide)
peptide: VGCARRYCS
modifications: disulfide 3-8 (inferred)
notes: optimised CD13 ligand peptide; also called free G4 peptide; source: synthetic peptide
Ki [6]: 21 nM and ~22 nM

B3: TNF: murine TNF (not linked to G4) (protein)
chain: MSTESMIRDVELAEEALPQKMGGFQNSRRCLCLSLFSFLLVAGATTLFCLLNFGVIGPQRDEKFPNGLPLISSMAQTLTLRSSSQNSSDKPVAHVVANHQVEEQLEWLSQRANALLANGMDLKDNQLVVPADGLYLVYSQVLFKGQGCPDYVLLTHTVSRFAISYQEKVNLLSAVKSPCPKDTPEGAELKPWYEPIYLGGVFQLEKGDQLSAEVNLPKYLDFAESGQVYFGVIAL
Antitumor effect (tumor growth) ([3]; single intraperitoneal injection of 50 pg): totally inactive
